Data reported in US20010047099A1, “4-aminopicolinates and their use as herbicides” (priority 2000, published 2001).
Where two headings read alike, the source gives them in different places.

What was measured:
Assay type in all cases: in vivo
[1] = test system: Rox orange sorghum (sorghum bicolor); assay: Postemergence herbicidal activity; conditions: post-emergence, 336 h
Outline: (§1)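 Spray rate conversion: 1 ppm ≈ 1 g/Ha. The test used greenhouse seedlings (first/second true leaf) treated with a serially diluted compound spray. Control plants received carrier only. Efficacy was taken as visual injury at 2 weeks on a 0–100% scale.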

[2] = test system: barnyardgrass (Echinochloa crus-galli); assay: Postemergence herbicidal activity; conditions: for inhibition at 125 ppm: Echinochloa crus-galli, post-emergence, 336 h, Table 2, rate 125 ppm, after 2 weeks, read-out: POSTMERGENCE HERBICIDAL ACTIVITY % CONTROL ECHCG; for post emergent evaluation - % control ECHCG: Table 3, weeds in rice, rate 250 ppm
Outline: as §1

[3] = test system: blackgrass (Alopecurus myosuroides); assay: Postemergence herbicidal activity; conditions: post-emergence, 336 h
Outline: as §1

[4] = test system: giant foxtail (Setaria faberi); assay: Postemergence herbicidal activity; conditions: post-emergence, 336 h
Outline: as §1

[5] = test system: pigweed (Amaranthus retroflexus); assay: Postemergence herbicidal activity; conditions: Amaranthus retroflexus, post-emergence, 336 h, Table 2, rate 125 ppm, after 2 weeks, read-out: POSTMERGENCE HERBICIDAL ACTIVITY % CONTROL AMARE
Outline: as §1

[6] = test system: velvetleaf (Abutillon theophrasti); assay: Postemergence herbicidal activity; conditions: Abutilon theophrasti, post-emergence, 336 h, Table 2, rate 125 ppm, after 2 weeks, read-out: POSTMERGENCE HERBICIDAL ACTIVITY % CONTROL ABUTH
Outline: as §1

[7] = test system: Rox orange sorghum (sorghum bicolor); assay: Preemergence herbicidal activity; conditions: pre-emergence, 504 h
Outline: (§2)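 Seeds were sown in a 70:30 loam/sand mix (pH about 8.1, about 1.5 percent organic matter), and the soil surface was sprayed with compound in aqueous acetone/DMSO containing 0.1 percent Tween 155. Pots were kept in a greenhouse at 23-29° C day, 15 hr photoperiod, top-irrigated; injury was scored visually after 3 weeks.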

[8] = test system: blackgrass (Alopecurus myosuroides); assay: Preemergence herbicidal activity; conditions: pre-emergence, 504 h
Outline: as §2

[9] = test system: crabgrass (Digitaria sanguinalis); assay: Preemergence herbicidal activity; conditions: pre-emergence, 504 h
Outline: as §2

[10] = test system: giant foxtail (Setaria faberi); assay: Preemergence herbicidal activity; conditions: pre-emergence, 504 h
Outline: as §2

[11] = Table 2, rate 125 ppm, after 2 weeks, read-out: POSTMERGENCE HERBICIDAL ACTIVITY % CONTROL SORBI
[12] = Table 2, rate 125 ppm, after 2 weeks, read-out: POSTMERGENCE HERBICIDAL ACTIVITY % CONTROL ALOMY
[13] = Table 2, rate 125 ppm, after 2 weeks, read-out: POSTMERGENCE HERBICIDAL ACTIVITY % CONTROL SETFA
[14] = Table 7, rate 35 g/Ha, after 3 weeks, read-out: PREEMERGENCE HERBICIDAL ACTIVITY % CONTROL SORBI
[15] = Table 7, rate 35 g/Ha, after 3 weeks, read-out: PREEMERGENCE HERBICIDAL ACTIVITY % CONTROL ALOMY
[16] = Table 7, rate 35 g/Ha, after 3 weeks, read-out: PREEMERGENCE HERBICIDAL ACTIVITY % CONTROL DIGSA
[17] = Table 7, rate 35 g/Ha, after 3 weeks, read-out: PREEMERGENCE HERBICIDAL ACTIVITY % CONTROL SETFA

SMILES	inhibition at 125 ppm [1, 11] [%]	inhibition at 125 ppm [2] [%]	post emergent evaluation - % control ECHCG [2] [%]	inhibition at 125 ppm [3, 12] [%]	inhibition at 125 ppm [4, 13] [%]	inhibition at 125 ppm [5] [%]	inhibition at 125 ppm [6] [%]	inhibition at 35 g/ha [7, 14] [%]	inhibition at 35 g/ha [8, 15] [%]	inhibition at 35 g/ha [9, 16] [%]	inhibition at 35 g/ha [10, 17] [%]	other results
Nc1cc(Br)nc(C(=O)O)c1Cl [Compound 14, 4-Amino-6-bromo-3-chloropyridine-2-carboxylic acid]	60	65	65	50	65	90	85	50	60	80	98	
CCOC(=O)c1nc(Cl)cc(N)c1Cl [Compound 4, ethyl 4-amino-3,6-dichloropyridine-2-carboxylate]	40	50		40	75	100	70					
COc1c(C(=O)O)nc(Br)c(Cl)c1N [Compound 42, 4-Amino-6-bromo-5-chloro-3-methoxypyridine-2-carboxylic acid]								20	30	30	30	
Nc1c(F)c(Cl)nc(C(=O)O)c1Cl [Compound 19, 4-Amino-3,6-dichloro-5-fluoropyridine-2-carboxylic acid]	10	10		20	20	60	50					
Nc1cc(Cl)nc(C(=O)O)c1Cl [Compound 1, 4-Amino-3,6-dichloropyridine-2-carboxylic acid]			75									inhibition at 125 ppm ([1]; read-out: PO[…] % CONTROL SORBI, Table 2, rate 125 ppm, after 2 weeks, read-out: POSTMERGENCE HERBICIDAL ACTIVITY % CONTROL SORBI): 50%; inhibition at 125 ppm ([2]; read-out: PO[…] % CONTROL ECHCG): 45%; inhibition at 125 ppm ([3]; read-out: PO[…] % CONTROL ALOMY, Table 2, rate 125 ppm, after 2 weeks, read-out: POSTMERGENCE HERBICIDAL ACTIVITY % CONTROL ALOMY): 50%; inhibition at 125 ppm ([4]; read-out: PO[…] % CONTROL SETFA, Table 2, rate 125 ppm, after 2 weeks, read-out: POSTMERGENCE HERBICIDAL ACTIVITY % CONTROL SETFA): 75%; inhibition at 125 ppm ([5]; read-out: PO[…] % CONTROL AMARE): 95%; inhibition at 125 ppm ([6]; read-out: PO[…] % CONTROL ABUTH): 70%; inhibition at 35 g/ha ([7]; read-out: PR[…] % CONTROL SORBI, Table 7, rate 35 g/Ha, after 3 weeks): 60%; inhibition at 35 g/ha ([8]; read-out: PR[…] % CONTROL ALOMY, Table 7, rate 35 g/Ha, after 3 weeks): 36%; inhibition at 35 g/ha ([9]; read-out: PR[…] % CONTROL DIGSA, Table 7, rate 35 g/Ha, after 3 weeks): 20%; inhibition at 35 g/ha ([10]; read-out: PR[…] % CONTROL SETFA, Table 7, rate 35 g/Ha, after 3 weeks): 40%
COC(=O)c1nc(Cl)cc(N)c1Cl [Compound 3, methyl 4-amino-3,6-dichloropyridine-2-carboxylate]								30		40	40	
